{"source": "patent US11596639B2", "about": "“Substituted indole Mcl-1 inhibitors” (Vanderbilt University, priority 2016, dated 2023)", "key": {"Mcl-1": {"target": "Mcl-1 (Homo sapiens (Human), UniProt Q07820)", "sequence (Q07820 172-327)": "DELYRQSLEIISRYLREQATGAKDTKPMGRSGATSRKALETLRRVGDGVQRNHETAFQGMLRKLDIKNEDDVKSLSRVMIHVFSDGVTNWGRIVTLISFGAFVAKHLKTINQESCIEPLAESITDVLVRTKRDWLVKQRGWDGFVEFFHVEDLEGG", "experiment": "Fluorescence polarization anisotropy (FPA) competition assay, FITC-Bak or FITC-Bim BH3 peptide", "assay_type": "binding", "settings": "read-out: Ki for Inhibition of Mcl-1 by FPA assay"}, "[1]": {"tested_on": "H929 human cancer cell lines", "experiment": "Cellular viability / proliferation (Cell TiterGlo, 72 h)", "assay_type": "cell-based", "outline": "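Compounds were added as 2-fold serial dilutions from 50 μM (final DMSO <1%) to H929 cells seeded 1,000 per well in 10% FBS medium one day earlier.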"}, "[2]": {"settings": "Homo sapiens, NCI-H929, 72 h, read-out: GI50 on cellular proliferation of H929 human cancer cell lines, H929 cells, 72 h, Cell TiterGlo, 10% FBS"}}, "note": "Where two headings read alike, the source gives them in different places.", "data": [{"smiles": "Cc1cc(OCCCc2c3n(c4c(-c5c(C)n[nH]c5C)c(Cl)ccc24)[C@H](C)CN(c2cc(C(=O)O)c4cnn(C)c4c2)C3=O)cc(C)c1Cl", "note": "[Example 93, (R)-6-(7-chloro-10-(3-(4-chloro-3,5-dimethylphenoxy)propyl)-6-(3,5-dimethyl-1H-pyrazol-4-yl)-4-methyl-1-oxo-3,4-dihydropyrazino[1,2-a]indol-2(1H)-yl)-1-methyl-1H-indazole-4-carboxylic acid]", "values": [{"measurement": "Ki", "setting": "Mcl-1", "value": "< 1", "unit": "nM"}, {"measurement": "GI50", "setting": "[1]; [2]", "value": 7500, "unit": "nM"}]}, {"smiles": "CCn1cc(N2C[C@@H](C)n3c(c(CCCOc4cc(C)c(Cl)c(C)c4)c4ccc(Cl)c(-c5c(C)nn(C)c5C)c43)C2=O)c2cccc(C(=O)O)c21", "note": "[Example 83, (R)-3-(7-Chloro-10-(3-(4-chloro-3,5-dimethylphenoxy)propyl)-4-methyl-1-oxo-6-(1,3,5-trimethyl-1H-pyrazol-4-yl)-3,4-dihydropyrazino[1,2-a]indol-2(1H)-yl)-1-ethyl-1H-indole-7-carboxylic acid]", "values": [{"measurement": "Ki", "setting": "Mcl-1", "value": "< 1", "unit": "nM"}, {"measurement": "GI50", "setting": "[1]; [2]", "value": 1100, "unit": "nM"}]}, {"smiles": "Cc1cc(OCCCc2c3n(c4c(-c5c(C)ncnc5C)c(Cl)ccc24)CCCN(c2cccc4cc(C(=O)O)n(Cc5ccccn5)c24)C3=O)cc(C)c1Cl", "note": "[Example 279, 7-(8-Chloro-11-(3-(4-chloro-3,5-dimethylphenoxy)propyl)-7-(4,6-dimethylpyrimidin-5-yl)-1-oxo-4,5-dihydro-1H-[1,4]diazepino[1,2-a]indol-2(3H)-yl)-1-(pyridin-2-ylmethyl)-1H-indole-2-carboxylic acid]", "values": [{"measurement": "Ki", "setting": "Mcl-1", "value": 1, "unit": "nM"}, {"measurement": "GI50", "setting": "[1]; [2]", "value": 3300, "unit": "nM"}]}, {"smiles": "Cc1cc(OCCCc2c3n(c4c(-c5c(C)nn(C)c5C)c(Cl)ccc24)CCCN(c2nc(C(=O)O)n[nH]2)C3=O)cc(C)c1Cl", "note": "[Example 37, 5-(8-Chloro-11-(3-(4-chloro-3,5-dimethylphenoxy)propyl)-1-oxo-7-(1,3,5-trimethyl-1H-pyrazol-4-yl)-4,5-dihydro-1H-[1,4]diazepino[1,2-a]indol-2(3H)-yl)-1H-1,2,4-triazole-3-carboxylic acid]", "values": [{"measurement": "Ki", "setting": "Mcl-1", "value": 3, "unit": "nM"}, {"measurement": "GI50", "setting": "[1]; [2]", "value": 1800, "unit": "nM"}]}, {"smiles": "Cc1cc(OCCCc2c3n(c4c(-c5c(C)nn(C)c5C)c(Cl)ccc24)[C@H](C)CN(c2ccnc4ccc(C(=O)O)cc24)C3=O)cc(C)c1Cl", "note": "[Example 172, (R)-4-(7-Chloro-10-(3-(4-chloro-3,5-dimethylphenoxy)propyl)-4-methyl-1-oxo-6-(1,3,5-trimethyl-1H-pyrazol-4-yl)-3,4-dihydropyrazino[1,2-a]indol-2(1H)-yl)quinoline-6-carboxylic acid]", "values": [{"measurement": "Ki", "setting": "Mcl-1", "value": "< 1", "unit": "nM"}, {"measurement": "GI50", "setting": "[1]; [2]", "value": 320, "unit": "nM"}]}, {"smiles": "Cc1cc(OCCCc2c3n(c4c(-c5c(C)nn(C)c5C)c(Cl)ccc24)[C@H](C)CN(c2cccc4cc(C(=O)O)n(Cc5ncccn5)c24)C3=O)cc(C)c1Cl", "note": "[Example 329, (R)-7-(7-Chloro-10-(3-(4-chloro-3,5-dimethylphenoxy)propyl)-4-methyl-1-oxo-6-(1,3,5-trimethyl-1H-pyrazol-4-yl)-3,4-dihydropyrazino[1,2-a]indol-2(1H)-yl)-1-(pyrimidin-2-ylmethyl)-1H-indole-2-carboxylic acid]", "values": [{"measurement": "Ki", "setting": "Mcl-1", "value": "< 1", "unit": "nM"}, {"measurement": "GI50", "setting": "[1]; [2]", "value": 1100, "unit": "nM"}]}, {"smiles": "Cc1cc(OCCCc2c3n(c4c(-c5c(C)nn(C)c5C)c(Cl)ccc24)[C@H](C)CN(c2cccc4cc5n(c24)CCN(CCC(C)C)C5=O)C3=O)cc(C)c1Cl", "note": "[Example 229, (4R)-7-chloro-10-[3-(4-chloro-3,5-dimethyl-phenoxy)propyl]-2-(2-isopentyl-1-oxo-3,4-dihydropyrazino[1,2-a]indol-6-yl)-4-methyl-6-(1,3,5-trimethylpyrazol-4-yl)-3,4-dihydropyrazino[1,2-a]indol-1-one]", "values": [{"measurement": "Ki", "setting": "Mcl-1", "value": 3.7, "unit": "nM"}, {"measurement": "GI50", "setting": "[1]; [2]", "value": 9300, "unit": "nM"}]}, {"smiles": "Cc1cc(OCCCc2c3n(c4c(-c5c(C)nn(C)c5C)c(Cl)ccc24)CCCN(c2ccc4c(C(=O)O)cn(C)c4c2)C3=O)cc(C)c1Cl", "note": "[Example 81, 6-(8-Chloro-11-(3-(4-chloro-3,5-dimethylphenoxy)propyl)-1-oxo-7-(1,3,5-trimethyl-1H-pyrazol-4-yl)-4,5-dihydro-1H-[1,4]diazepino[1,2-a]indol-2(3H)-yl)-1-methyl-1H-indole-3-carboxylic acid]", "values": [{"measurement": "Ki", "setting": "Mcl-1", "value": 2.4, "unit": "nM"}, {"measurement": "GI50", "setting": "[1]; [2]", "value": 2900, "unit": "nM"}]}, {"smiles": "Cc1cc(OCCCc2c3n(c4c(-c5c(C)nn(C)c5C)c(Cl)ccc24)[C@H](C)CN(c2cn(C)c4ccc(C(N)=O)cc24)C3=O)cc(C)c1Cl", "note": "[Example 221, 3-[(4R)-7-chloro-10-[3-(4-chloro-3,5-dimethyl-phenoxy)propyl]-4-methyl-1-oxo-6-(1,3,5-trimethylpyrazol-4-yl)-3,4-dihydropyrazino[1,2-a]indol-2-yl]-1-methyl-indole-5-carboxamide]", "values": [{"measurement": "Ki", "setting": "Mcl-1", "value": 2.5, "unit": "nM"}, {"measurement": "GI50", "setting": "[1]; [2]", "value": 450, "unit": "nM"}]}, {"smiles": "Cc1cc(OCCCc2c3n(c4c(-c5c(C)nn(C)c5C)c(Cl)ccc24)[C@H](C)CN(c2cccc4cc(C(N)=O)n(C)c24)C3=O)cc(C)c1Cl", "note": "[Example 377, (R)-7-(7-chloro-10-(3-(4-chloro-3,5-dimethylphenoxy)propyl)-4-methyl-1-oxo-6-(1,3,5-trimethyl-1H-pyrazol-4-yl)-3,4-dihydropyrazino[1,2-a]indol-2(1H)-yl)-1-methyl-1H-indole-2-carboxamide]", "values": [{"measurement": "Ki", "setting": "Mcl-1", "value": 4.9, "unit": "nM"}, {"measurement": "GI50", "setting": "[1]; read-out: GI50 on cellular proliferation of H929 human cancer cell lines, H929 cells, 72 h, Cell TiterGlo, 10% FBS", "value": 630, "unit": "nM"}]}, {"smiles": "Cc1cc(OCCCc2c3n(c4c(-c5c(C)nn(C)c5C)c(Cl)ccc24)[C@H](C)CN(c2cccc4c2cc(C(=O)O)n4CCN2CCOCC2)C3=O)cc(C)c1Cl", "note": "[Example 367, (R)-4-(7-Chloro-10-(3-(4-chloro-3,5-dimethylphenoxy)propyl)-4-methyl-1-oxo-6-(1,3,5-trimethyl-1H-pyrazol-4-yl)-3,4-dihydropyrazino[1,2-a]indol-2(1H)-yl)-1-(2-morpholinoethyl)-1H-indole-2-carboxylic acid]", "values": [{"measurement": "Ki", "setting": "Mcl-1", "value": 1.2, "unit": "nM"}, {"measurement": "GI50", "setting": "[1]; [2]", "value": 400, "unit": "nM"}]}, {"smiles": "Cc1cc(OCCCc2c3n(c4c(-c5c(C)nn(C)c5C)c(Cl)ccc24)[C@H](C)CN(c2cn(C)c4ccc(-c5cnn(C)c5)cc24)C3=O)cc(C)c1Cl", "note": "[Example 391, (R)-7-Chloro-10-(3-(4-chloro-3,5-dimethylphenoxy)propyl)-4-methyl-2-(1-methyl-5-(1-methyl-1H-pyrazol-4-yl)-1H-indol-3-yl)-6-(1,3,5-trimethyl-1H-pyrazol-4-yl)-3,4-dihydropyrazino[1,2-a]indol-1(2H)-one]", "values": [{"measurement": "Ki", "setting": "Mcl-1", "value": 2.1, "unit": "nM"}, {"measurement": "GI50", "setting": "[1]; [2]", "value": 370, "unit": "nM"}]}, {"smiles": "Cc1cc(OCCCc2c3n(c4c(-c5c(C)nn(C)c5C)c(Cl)ccc24)[C@H](C)CN(c2cn(C)c4ccc(-c5nnn[nH]5)cc24)C3=O)cc(C)c1Cl", "note": "[Example 235, (R)-7-Chloro-10-(3-(4-chloro-3,5-dimethylphenoxy)propyl)-4-methyl-2-(1-methyl-5-(1H-tetrazol-5-yl)-1H-indol-3-yl)-&(1,3,5-trimethyl-1H-pyrazol-4-yl)-3,4-dihydropyrazino[1,2-a]indol-1(2H)-one]", "values": [{"measurement": "Ki", "setting": "Mcl-1", "value": "< 1", "unit": "nM"}, {"measurement": "GI50", "setting": "[1]; H929 cells, 72 h, Cell TiterGlo, 10% FBS, read-out: GI50 on cellular proliferation of H929 human cancer cell lines", "value": 240, "unit": "nM"}]}, {"smiles": "Cc1cc(OCCCc2c3n(c4c(-c5c(C)n[nH]c5C)c(Cl)ccc24)[C@H](C)CN(c2cn(C)c4c(C)cc(C(=O)O)cc24)C3=O)cc(C)c1Cl", "note": "[Example 160, (R)-3-(7-chloro-10-(3-(4-chloro-3,5-dimethylphenoxy)propyl)-6-(3,5-dimethyl-1H-pyrazol-4-yl)-4-methyl-1-oxo-3,4-dihydropyrazino[1,2-a]indol-2(1H)-yl)-1,7-dimethyl-1H-indole-5-carboxylic acid]", "values": [{"measurement": "Ki", "setting": "Mcl-1", "value": 1.1, "unit": "nM"}, {"measurement": "GI50", "setting": "[1]; [2]", "value": 690, "unit": "nM"}]}]}
